Measured values: patent US12612410B2 (CHILDREN'S HOSPITAL MEDICAL CENTER, priority 2020, dated 2026)

Assays:
[1] = test system: MOLM14 D835Y cells; assay: MOLM14 D835Y cell viability assay (Cell Titer Glo); type: cell-based
Outline: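 MOLM14 cells carrying FLT3 D835Y or F691L were seeded at 1000 cells/well in RPMI-1640 with 20% FBS and dosed at 22 concentrations, 1:2 dilutions from 10 μM. Viability after 48 h by Cell Titer Glo luminescence; 2.3 μM bortezomib as cytotoxic control.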

[2] = biological target: T1, FLT3 (Homo sapiens, UniProt P36888); assay: Reaction Biology NanoBRET target engagement assay, FLT3; type: cell-based; conditions: transfected HEK-293 cells
T1 sequence (P36888 27-993): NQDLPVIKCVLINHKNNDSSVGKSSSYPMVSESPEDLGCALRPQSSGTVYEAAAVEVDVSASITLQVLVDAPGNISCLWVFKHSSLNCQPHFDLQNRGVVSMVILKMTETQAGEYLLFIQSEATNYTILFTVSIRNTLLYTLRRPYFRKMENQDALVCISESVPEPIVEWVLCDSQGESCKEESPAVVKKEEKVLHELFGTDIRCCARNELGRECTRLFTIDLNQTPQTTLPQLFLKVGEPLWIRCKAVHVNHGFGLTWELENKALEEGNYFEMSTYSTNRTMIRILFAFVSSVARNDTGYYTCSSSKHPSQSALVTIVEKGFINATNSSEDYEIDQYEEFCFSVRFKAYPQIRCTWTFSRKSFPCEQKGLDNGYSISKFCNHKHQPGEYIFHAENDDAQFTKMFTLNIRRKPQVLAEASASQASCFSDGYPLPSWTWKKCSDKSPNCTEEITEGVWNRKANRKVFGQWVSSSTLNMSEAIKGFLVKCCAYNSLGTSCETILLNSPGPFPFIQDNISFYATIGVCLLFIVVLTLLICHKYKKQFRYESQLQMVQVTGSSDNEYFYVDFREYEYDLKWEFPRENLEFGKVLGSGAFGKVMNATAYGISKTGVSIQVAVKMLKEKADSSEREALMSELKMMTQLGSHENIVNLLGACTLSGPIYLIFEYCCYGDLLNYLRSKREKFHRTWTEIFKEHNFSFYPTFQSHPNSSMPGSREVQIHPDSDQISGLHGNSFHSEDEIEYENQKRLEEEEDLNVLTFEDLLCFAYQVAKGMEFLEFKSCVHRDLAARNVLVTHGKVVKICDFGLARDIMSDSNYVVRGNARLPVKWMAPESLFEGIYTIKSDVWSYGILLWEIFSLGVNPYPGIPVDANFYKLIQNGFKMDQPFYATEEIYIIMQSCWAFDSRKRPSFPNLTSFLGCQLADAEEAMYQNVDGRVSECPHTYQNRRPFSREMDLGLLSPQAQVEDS
Text: The NanoBRET assay measures kinase engagement in real time in the context of the intact cell. Unlike the previously described biochemical kinase assay methodologies in Examples 26-27, the NanoBRET assay measures the binding and activity characteristics under equilibrium conditions using full-length kinases in the presence of cellular concentrations of ATP in live, uncompromised cells. As such, the assay provides a more relevant assessment of kinase potency and selectivity that would be expected to be observed in the native cellular environment, where potency is often considerably lower than that observed in the isolated biochemical assays (Vasta, J. D. et al., (2018) Cell Chem. Biol. 25, 206-214). The assay uses a Kinase-NanoLuc® fusion vector expressing a kinase protein to which a luciferase tag has been added, a cell-permeant fluorescent NanoBRET™ tracer, a NanoLuc® substrate, and an extracellular NanoLuc® inhibitor. Upon expression of the luciferase-tagged kinase, cells will produce a strong BRET signal only in the presence of the NanoBRET™ tracer. The extracellular NanoLuc® inhibitor ensures that the BRET signal observed emanates only from live cells. Because the BRET signal has tight distance constraints, addition of the test compound will decrease the BRET signal if the compound competes with the NanoBRET™ tracer for binding to the kinase domain. Under the appropriate tracer conditions established by the manufacturer, quantitative intracellular affinity and relative potency can then be determined using Mass Action model equations.
HEK-293 cells were purchased from ATCC. FuGENEHD Transfection Reagent, Kinase-NanoLucfusion plasmids, Transfection Carrier DNA, NanoBRETTracers and dilution buffer, NanoBRETNano-Glo Substrate, Extracellular NanoLucInhibitor were obtained from Promega.
Assays were conducted following Promega assay protocol with some modifications. HEK-293 Cells were transiently transfected with Kinase-NanoLucFusion Vector DNA by FuGENEHD Transfection Reagent. Testing compounds were delivered into 384 well assay plate by Echo 550 (Labcytelnc, Sunnyvale, CA). Transfected cells were harvested and mixed with NanoBRETTracer Reagent and dispensed into 384 well plates and incubated at 37° C. in 5% CO2 cell culture incubator for 1 hour. The NanoBRETNano-Glo Substrate plus Extracellular NanoLucInhibitor Solution were added into the wells of the assay plate and incubated for 2-3 minutes at room temperature. The donor emission wavelength (460 nm) and acceptor emission wavelength (600 nm) were measured in the EnVisionplate reader. The BRET Ratios were calculated. BRET Ratio=[(Acceptor sample÷Donor sample)−(Acceptor no-tracer control÷Donor no-tracer control)]. The IC50 values of compounds were calculated with Prism GraphPad program.
NanoBRET™ Target Engagement Assay Protocol
1. Transient Transfection of HEK-293 Cells NanoLuc® Fusion Vector DNA
• 1). Cultivate HEK-293 cells (70-80% confluence) appropriately prior to assay. Trypsinize and collect HEK-293 cells. • 2). Prepare lipid: DNA complexes as follows: • a. Prepare a […] solution of DNA in Opti-MEM without serum that consists of the following ratios of carrier DNA and DNA encoding NanoLuc® fusion. 9.0 µg/mL of Transfection Carrier DNA, […] of NanoLuc fusion vector DNA and 1 mL of Opti-MEM without phenol red. Mix thoroughly. • b. Add 30 l of FuGENE HD Transfection Reagent into each milliliter of DNA mixture to form lipid: DNA complex. • c. Mix by inversion 10 times. • d. Incubate at ambient temperature for 20 minutes to allow complexes to form. • 3). In a sterile, conical tube, mix 1 part of lipid: DNA complex with 20 parts of HEK-293 cells in suspension. Mix gently by inversion 5 times. • 4). Dispense cells+lipid: DNA complex into a sterile tissue culture dish and incubate for 22-24 hours. 2. Addition of Test Compounds (dry plate shooting)
Each test compound is delivered from the compound source plate to the wells of 384-well white NBS plate by Echo 550.
3. […]

Row | Structure (SMILES) | IC50 ([1]; 48 hours) | IC50 [2] | IC50 ([1]; Homo sapiens, MOLM-14, 48 h)
1 | CC(O)(c1cn2c(-c3cccc(N[C@H]4CNC[C@@H]4F)n3)cnc2cn1)C(F)(F)F (single isomer, unassigned) [Compound 77] | 106 nM | 277 nM | –
2 | CC(O)(c1cn2c(-c3cccc(N[C@H]4CNC[C@@H]4F)n3)cnc2cn1)C(F)(F)F (single isomer, unassigned) [Compound 78] | 47 nM | 40 nM | –
3 | CC(O)(c1cn2c(-c3cccc(N[C@H]4CNCC[C@@H]4F)n3)cnc2cn1)C(F)(F)F (single isomer, unassigned) [Compound 80] | – | 94 nM | 68 nM
4 | CC(O)(c1cn2c(-c3cccc(N[C@@H]4CCCNC4)n3)cnc2cn1)C(F)(F)F (single isomer, unassigned) [Compound 81] | – | 15 nM | 30 nM
5 | CC(O)(c1cn2c(-c3cccc(N[C@H]4CNCC[C@@H]4F)n3)cnc2cn1)C(F)(F)F (single isomer, unassigned) [Compound 82] | 34 nM | 40 nM | –
6 | CC(C)(O)c1cn2c(-c3cccc(N[C@@H]4CCCNC4)n3)cnc2cn1 [Compound 30, (R)-2-(3-(6-(piperidin-3-ylamino)pyridin-2-yl)imidazo[1,2-a]pyrazin-6-yl)propan-2-ol] | – | – | 75 nM
7 | CC(C)(O)c1cn2c(-c3cccc(N[C@H]4CNCC[C@@H]4F)n3)cnc2cn1 [Compound 31, 2-(3-(6-(((3S,4S)-4-fluoropiperidin-3-yl)amino)pyridin-2-yl)imidazo[1,2-a]pyrazin-6-yl)propan-2-ol] | – | 136 nM | 63 nM
8 | CC(C)(O)c1cn2c(-c3nc(N[C@H]4CNC[C@@H]4F)c(F)cc3F)cnc2cn1 [Compound 33, 2-(3-(3,5-difluoro-6-(((3S,4S)-4-fluoropyrrolidin-3-yl)amino)pyridin-2-yl)imidazo[1,2-a]pyrazin-6-yl)propan-2-ol] | – | 1500 nM | 168 nM
9 | CC(C)(O)c1cn2c(-c3nc(N[C@@H]4CCCNC4)c(F)cc3F)cnc2cn1 [Compound 34, (R)-2-(3-(3,5-difluoro-6-(piperidin-3-ylamino)pyridin-2-yl)imidazo[1,2-a]pyrazin-6-yl)propan-2-ol] | – | 177 nM | 106 nM
10 | CC(C)(O)c1cn2c(-c3nc(N[C@H]4CNCC[C@@H]4F)c(F)cc3F)cnc2cn1 [Compound 35, 2-(3-(3,5-difluoro-6-(((3S,4S)-4-fluoropiperidin-3-yl)amino)pyridin-2-yl)imidazo[1,2-a]pyrazin-6-yl)propan-2-ol] | – | 216 nM | 94 nM
11 | FC(F)(F)COc1cn2c(-c3cccc(N[C@@H]4CCNC4)n3)cnc2cn1 [Compound 38, (R)-N-(pyrrolidin-3-yl)-6-(6-(2,2,2-trifluoroethoxy)imidazo[1,2-a]pyrazin-3-yl)pyridin-2-amine] | – | 12 nM | 23 nM
12 | F[C@H]1CNC[C@@H]1Nc1cccc(-c2cnc3cnc(C4CC4)cn23)n1 [Compound 50, 6-(6-cyclopropylimidazo[1,2-a]pyrazin-3-yl)-N-((3S,4S)-4-fluoropyrrolidin-3-yl)pyridin-2-amine] | – | 10 nM | 24 nM

Continued by falling IC50 ([1]; Homo sapiens, MOLM-14, 48 h), values first:

Row | IC50 ([1]; 48 hours) | IC50 [2] | IC50 ([1]; Homo sapiens, MOLM-14, 48 h) | Structure (SMILES)
13 | – | 21 nM | 21 nM | FC(F)c1cn2c(-c3cccc(N[C@H]4CNC[C@@H]4F)n3)cnc2cn1 [Compound 16, 6-(6-(difluoromethyl)imidazo[1,2-a]pyrazin-3-yl)-N-((3S,4S)-4-fluoropyrrolidin-3-yl)pyridin-2-amine]
14 | – | 6 nM | 18 nM | CC1(c2cn3c(-c4cccc(N[C@H]5CNC[C@@H]5F)n4)cnc3cn2)CC1 [Compound 1, N-((3S,4S)-4-fluoropyrrolidin-3-yl)-6-(6-(1-methylcyclopropyl)imidazo[1,2-a]pyrazin-3-yl)pyridin-2-amine]
15 | – | – | 14 nM | FC(F)(F)C1(c2cn3c(-c4cccc(N[C@@H]5CCNC5)n4)cnc3cn2)CC1 [Compound 10, (R)-N-(pyrrolidin-3-yl)-6-(6-(1-(trifluoromethyl)cyclopropyl)imidazo[1,2-a]pyrazin-3-yl)pyridin-2-amine]
16 | – | – | 11 nM | Cn1cc(-c2cn3c(-c4cccc(N[C@H]5CNC[C@@H]5F)n4)cnc3cn2)cn1 [Compound 52, N-((3S,4S)-4-fluoropyrrolidin-3-yl)-6-(6-(1-methyl-1H-pyrazol-4-yl)imidazo[1,2-a]pyrazin-3-yl)pyridin-2-amine]
17 | – | 6 nM | 9 nM | FC(F)c1cn2c(-c3cccc(N[C@H]4CNCC[C@@H]4F)n3)cnc2cn1 [Compound 25, 6-(6-(difluoromethyl)imidazo[1,2-a]pyrazin-3-yl)-N-((3S,4S)-4-fluoropiperidin-3-yl)pyridin-2-amine]
18 | – | – | 9 nM | O=C1NCCN1c1cn2c(-c3cccc(N[C@H]4CNCC[C@@H]4F)n3)cnc2cn1 [Compound 118, 1-(3-(6-(((3S,4S)-4-fluoropiperidin-3-yl)amino)pyridin-2-yl)imidazo[1,2-a]pyrazin-6-yl)imidazolidin-2-one]
19 | – | 73 nM | 8 nM | Cn1cc(-c2cn3c(-c4cccc(N[C@@H]5CCCNC5)n4)cnc3cn2)cn1 [Compound 43, (R)-6-(6-(1-methyl-1H-pyrazol-4-yl)imidazo[1,2-a]pyrazin-3-yl)-N-(piperidin-3-yl)pyridin-2-amine]
20 | – | 3 nM | 6 nM | CC1(c2cn3c(-c4cccc(N[C@@H]5CCNC5)n4)cnc3cn2)CC1 [Compound 3, (R)-6-(6-(1-methylcyclopropyl)imidazo[1,2-a]pyrazin-3-yl)-N-(pyrrolidin-3-yl)pyridin-2-amine]
21 | – | < 0.5 nM | 2 nM | CC1(c2cn3c(-c4cccc(N[C@H]5CNCC56CC6)n4)cnc3cn2)CC1 [Compound 5, (R)-N-(6-(6-(1-methylcyclopropyl)imidazo[1,2-a]pyrazin-3-yl)pyridin-2-yl)-5-azaspiro[2.4]heptan-7-amine]
